Laboratory results published in article PMC3700073, “Synthesis and Biological Activity of New Thiopyrano[2,3-d]thiazoles Containing a Naphthoquinone Moiety” (Scientia Pharmaceutica, 2013).
Values after ≈ are worked out from the molar mass of the structure shown. Like-named read-outs stand apart in the source and are kept apart here.

How the values were obtained:
male mice = assay: Acute toxicity in vivo, median lethal dose; conditions: intraperitoneal, approximate LD50 (Litchfield and Wilcoxon)
Description: The synthesized compounds were evaluated for their approximate LD50 in male mice. The mice were kept under a constant temperature and humidity in sterile cages with water and food. The stock solutions of the compounds used in this study were prepared immediately before usage and injected intraperitoneally (ip). The LD50 values (Tab. 3) were calculated using the method described by Litchfield and Wilcoxon.
The median lethal dose (LD50), the dose of the selected compounds that causes 50% mortality in mice, was determined from dose–response curves with at least four doses by the method of Litchfield and Wilcoxon.

M. tuberculosis H37Rv = assay: Microplate Alamar Blue Assay (MABA), MIC determination; assay type: cell-based, Mycobacterium tuberculosis; conditions: two-fold dilution from 100.00 to 0.19 μg/mL
[1] = tested on: Mycobacterium tuberculosis H37Rv strain (ATCC 27294); assay: Antimycobacterial pre-screening at 6.25 μg/mL (BACTEC 460 radiometric system); assay type: cell-based; conditions: M. tuberculosis H37Rv; for inhibition at 6.25 µg/mL: 6.25 μg/mL; for MIC90: pre-screening, read-out: Estimation of MIC90
in vitro = conditions: African green monkey
[2] = Cytotoxicity in VERO cells (MTT); conditions: African green monkey
[3] = Mycobacterium tuberculosis, H37RV, read-out: MIC90

| SMILES | LD50ip (male mice) | MIC90 (M. tuberculosis H37Rv; [3]) | MIC90 (M. tuberculosis H37Rv) | inhibition at 6.25 µg/mL [1] | MIC90 [1] | IC50 at 72 h (in vitro) | IC50 at 72 h [2] |
| --- | --- | --- | --- | --- | --- | --- | --- |
| O=C1C2=C(C(=O)c3ccccc31)C(c1ccccc1O)c1sc(=O)[nH]c1S2 (stereo not drawn) [Compound 4a, 11-(2-Hydroxyphenyl)-3, 11-dihydro-2H-benzo[6,7]thiochromeno[2,3-d][1,3]thiazole-2,5,10-trione] | 800 mg/kg | 0.6 to 2.7 µg/mL (≈ 1.52 to 6.86 µM) | 0.68 µg/mL (≈ 1.73 µM) | ≥ 90% | < 6.25 µg/mL | 0.44 µg/mL (≈ 1.12 µM) | – |
| CC(C)(C)c1ccc(C2C3=C(Sc4[nH]c(=O)sc42)C(=O)c2ccccc2C3=O)cc1 (stereo not drawn) [Compound 4b, 11-(4-tert-Butylphenyl)-3,11-dihydro-2H-benzo[6,7]thiochromeno[2,3-d][1,3]thiazole-2,5,10-trione] | 650 mg/kg | – | – | 61% | > 6.25 µg/mL | – | – |
| COC(=O)c1ccc(C2C3=C(Sc4[nH]c(=O)sc42)C(=O)c2ccccc2C3=O)cc1 (stereo not drawn) [Compound 4c, Methyl 4-(2,5,10-trioxo-3,5,10,11-tetrahydro-2H-benzo[6,7]thiochromeno[2,3-d][1,3]thiazol-11-yl)benzoate] | 180 mg/kg | – | – | ≥ 90% | < 6.25 µg/mL | – | – |
| COc1cc(C2C3=C(Sc4[nH]c(=O)sc42)C(=O)c2ccccc2C3=O)ccc1OC(F)F (stereo not drawn) [Compound 4d, 11-[4-(Difluoromethoxy)-3-methoxyphenyl]-3,11-dihydro-2H-benzo[6,7]thio-chromeno[2,3-d][1,3]thiazole-2,5,10-trione] | 710 mg/kg | – | – | 65% | > 6.25 µg/mL | – | – |
| O=C1C2=C(C(=O)c3ccccc31)C(c1ccc(Cl)cc1)c1sc(=O)[nH]c1S2 (stereo not drawn) [Compound 4g, 11-(4-Chlorophenyl)-3,11-dihydro-2H-benzo[6,7]thiochromeno[2,3-d][1,3]thiazole-2,5,10-trione] | >1000 mg/kg | – | – | ≥ 90% | < 6.25 µg/mL | 1.58 µg/mL (≈ 3.84 µM) | – |
| O=C1C2=C(C(=O)c3ccccc31)C(c1ccc(F)cc1)c1sc(=O)[nH]c1S2 (stereo not drawn) [Compound 4h, 11-(4-Fluorophenyl)-3,11-dihydro-2H-benzo[6,7]thiochromeno[2,3-d][1,3]thiazole-2,5,10-trione] | 750 mg/kg | – | – | ≥ 90% | < 6.25 µg/mL | 1.47 µg/mL (≈ 3.72 µM) | – |
| NNC(=O)c1ccncc1 [Isoniazid, isoniazid, reference compound] | – | 0.044 µg/mL (≈ 0.321 µM) | – | – | – | – | > 6 µg/mL |
| CO[C@H]1/C=C/O[C@@]2(C)Oc3c(C)c(O)c4c(O)c(c(/C=N/N5CCN(C)CC5)c(O)c4c3C2=O)NC(=O)/C(C)=C\C=C\[C@H](C)[C@H](O)[C@@H](C)[C@@H](O)[C@@H](C)[C@H](OC(C)=O)[C@@H]1C [Rifampin, reference compound] | – | 0.075 µg/mL (≈ 0.0911 µM) | – | – | – | – | > 6 µg/mL |
